{
  "source": "PubChem BioAssay (NCI)",
  "experiment_in_all_cases": "NCI-60 cell line screen, 48 h",
  "key": {"K-562 leukemia": {"system": "K-562 leukemia"}, "RXF 393 renal": {"system": "RXF 393 renal"}, "PC-3 prostate": {"system": "PC-3 prostate"}, "HCT-15 colon": {"system": "HCT-15 colon"}, "SNB-19 CNS": {"system": "SNB-19 CNS"}, "OVCAR-8 ovarian": {"system": "OVCAR-8 ovarian"}, "TK-10 renal": {"system": "TK-10 renal"}, "U251 CNS": {"system": "U251 CNS"}, "NCI-H522 lung": {"system": "NCI-H522 lung"}, "ACHN renal": {"system": "ACHN renal"}, "SK-OV-3 ovarian": {"system": "SK-OV-3 ovarian"}, "NCI-H460 lung": {"system": "NCI-H460 lung"}, "HCC-2998 colon": {"system": "HCC-2998 colon"}, "786-0 renal": {"system": "786-0 renal"}, "CAKI-1 renal": {"system": "CAKI-1 renal"}, "COLO 205 colon": {"system": "COLO 205 colon"}, "NCI/ADR-RES ovarian": {"system": "NCI/ADR-RES ovarian"}, "OVCAR-3 ovarian": {"system": "OVCAR-3 ovarian"}, "A549 NSCLC": {"system": "A549 NSCLC"}, "BT-549 breast": {"system": "BT-549 breast"}, "HS 578T breast": {"system": "HS 578T breast"}, "SW-620 colon": {"system": "SW-620 colon"}, "SN12C renal": {"system": "SN12C renal"}, "MDA-N": {"system": "MDA-N"}, "OVCAR-5 ovarian": {"system": "OVCAR-5 ovarian"}, "UO-31 renal": {"system": "UO-31 renal"}, "SNB-75 CNS": {"system": "SNB-75 CNS"}, "RPMI-8226 leukemia": {"system": "RPMI-8226 leukemia"}, "MALME-3M melanoma": {"system": "MALME-3M melanoma"}, "HOP-92 NSCLC": {"system": "HOP-92 NSCLC"}, "T-47D breast": {"system": "T-47D breast"}, "A498 renal": {"system": "A498 renal"}, "KM12 colon": {"system": "KM12 colon"}, "IGROV1 ovarian": {"system": "IGROV1 ovarian"}, "M14 melanoma": {"system": "M14 melanoma"}, "SF-539 CNS": {"system": "SF-539 CNS"}, "MDA-MB-231 breast": {"system": "MDA-MB-231 breast"}, "HCT-116 colon": {"system": "HCT-116 colon"}, "MDA-MB-435": {"system": "MDA-MB-435"}, "OVCAR-4 ovarian": {"system": "OVCAR-4 ovarian"}, "UACC-62 melanoma": {"system": "UACC-62 melanoma"}, "NCI-H23 lung": {"system": "NCI-H23 lung"}, "UACC-257 melanoma": {"system": "UACC-257 melanoma"}, "SK-MEL-5 melanoma": {"system": "SK-MEL-5 melanoma"}, "SK-MEL-2 melanoma": {"system": "SK-MEL-2 melanoma"}, "HT29 colon": {"system": "HT29 colon"}, "SF-295 CNS": {"system": "SF-295 CNS"}, "HL-60(TB) leukemia": {"system": "HL-60(TB) leukemia"}, "SF-268 CNS": {"system": "SF-268 CNS"}, "CCRF-CEM leukemia": {"system": "CCRF-CEM leukemia"}, "SK-MEL-28 melanoma": {"system": "SK-MEL-28 melanoma"}, "LOX IMVI melanoma": {"system": "LOX IMVI melanoma"}, "EKVX NSCLC": {"system": "EKVX NSCLC"}, "DU-145 prostate": {"system": "DU-145 prostate"}, "MCF7 breast": {"system": "MCF7 breast"}, "MOLT-4 leukemia": {"system": "MOLT-4 leukemia"}, "NCI-H226 lung": {"system": "NCI-H226 lung"}},
  "note": "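Following 48 hours of exposure in 96-well plates, responses at five concentrations were used to interpolate endpoints linearly. Definition used: TGI = concentration required for complete inhibition of growth.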",
  "data": [
    {"smiles": "CC[C@@]1(O)C(=O)OCc2c1cc1n(c2=O)Cc2c-1nc1ccccc1c2/C=N\\NC(=O)C[n+]1ccccc1", "values": [
      {"measurement": "TGI", "setting": "K-562 leukemia", "result": "> 100", "unit": "µM"},
      {"measurement": "TGI", "setting": "RXF 393 renal", "result": 2.79, "unit": "µM"},
      {"measurement": "TGI", "setting": "PC-3 prostate", "result": "> 100", "unit": "µM"},
      {"measurement": "TGI", "setting": "HCT-15 colon", "result": "> 100", "unit": "µM"},
      {"measurement": "TGI", "setting": "SNB-19 CNS", "result": 19.1, "unit": "µM"},
      {"measurement": "TGI", "setting": "OVCAR-8 ovarian", "result": "> 68.7", "unit": "µM"},
      {"measurement": "TGI", "setting": "TK-10 renal", "result": "> 100", "unit": "µM"},
      {"measurement": "TGI", "setting": "U251 CNS", "result": 32, "unit": "µM"},
      {"measurement": "TGI", "setting": "NCI-H522 lung", "result": "> 43.5", "unit": "µM"},
      {"measurement": "TGI", "setting": "ACHN renal", "result": 1.27, "unit": "µM"},
      {"measurement": "TGI", "setting": "SK-OV-3 ovarian", "result": "> 100", "unit": "µM"},
      {"measurement": "TGI", "setting": "NCI-H460 lung", "result": 9.75, "unit": "µM"},
      {"measurement": "TGI", "setting": "HCC-2998 colon", "result": "> 100", "unit": "µM"},
      {"measurement": "TGI", "setting": "786-0 renal", "result": "> 27.8", "unit": "µM"},
      {"measurement": "TGI", "setting": "CAKI-1 renal", "result": 20, "unit": "µM"},
      {"measurement": "TGI", "setting": "COLO 205 colon", "result": "> 100", "unit": "µM"},
      {"measurement": "TGI", "setting": "NCI/ADR-RES ovarian", "result": "> 100", "unit": "µM"},
      {"measurement": "TGI", "setting": "OVCAR-3 ovarian", "result": "> 79.4", "unit": "µM"},
      {"measurement": "TGI", "setting": "A549 NSCLC", "result": "> 100", "unit": "µM"},
      {"measurement": "TGI", "setting": "BT-549 breast", "result": "> 100", "unit": "µM"},
      {"measurement": "TGI", "setting": "HS 578T breast", "result": "> 100", "unit": "µM"},
      {"measurement": "TGI", "setting": "SW-620 colon", "result": "> 100", "unit": "µM"},
      {"measurement": "TGI", "setting": "SN12C renal", "result": "> 69", "unit": "µM"},
      {"measurement": "TGI", "setting": "MDA-N", "result": "> 100", "unit": "µM"},
      {"measurement": "TGI", "setting": "OVCAR-5 ovarian", "result": "> 65.7", "unit": "µM"},
      {"measurement": "TGI", "setting": "UO-31 renal", "result": 2.56, "unit": "µM"},
      {"measurement": "TGI", "setting": "SNB-75 CNS", "result": "> 28.2", "unit": "µM"},
      {"measurement": "TGI", "setting": "RPMI-8226 leukemia", "result": "> 100", "unit": "µM"},
      {"measurement": "TGI", "setting": "MALME-3M melanoma", "result": "> 100", "unit": "µM"},
      {"measurement": "TGI", "setting": "HOP-92 NSCLC", "result": "> 31.6", "unit": "µM"},
      {"measurement": "TGI", "setting": "T-47D breast", "result": 2.9, "unit": "µM"},
      {"measurement": "TGI", "setting": "A498 renal", "result": 21.4, "unit": "µM"},
      {"measurement": "TGI", "setting": "KM12 colon", "result": "> 100", "unit": "µM"},
      {"measurement": "TGI", "setting": "IGROV1 ovarian", "result": "> 100", "unit": "µM"},
      {"measurement": "TGI", "setting": "M14 melanoma", "result": 6.37, "unit": "µM"},
      {"measurement": "TGI", "setting": "SF-539 CNS", "result": 0.971, "unit": "µM"},
      {"measurement": "TGI", "setting": "MDA-MB-231 breast", "result": "> 100", "unit": "µM"},
      {"measurement": "TGI", "setting": "HCT-116 colon", "result": "> 38.1", "unit": "µM"},
      {"measurement": "TGI", "setting": "MDA-MB-435", "result": "> 100", "unit": "µM"},
      {"measurement": "TGI", "setting": "OVCAR-4 ovarian", "result": "> 100", "unit": "µM"},
      {"measurement": "TGI", "setting": "UACC-62 melanoma", "result": 1.22, "unit": "µM"},
      {"measurement": "TGI", "setting": "NCI-H23 lung", "result": 7.71, "unit": "µM"},
      {"measurement": "TGI", "setting": "UACC-257 melanoma", "result": "> 84.5", "unit": "µM"},
      {"measurement": "TGI", "setting": "SK-MEL-5 melanoma", "result": 2.09, "unit": "µM"},
      {"measurement": "TGI", "setting": "SK-MEL-2 melanoma", "result": "> 89.6", "unit": "µM"},
      {"measurement": "TGI", "setting": "HT29 colon", "result": "> 66.3", "unit": "µM"},
      {"measurement": "TGI", "setting": "SF-295 CNS", "result": "> 21.3", "unit": "µM"},
      {"measurement": "TGI", "setting": "HL-60(TB) leukemia", "result": "> 34.4", "unit": "µM"},
      {"measurement": "TGI", "setting": "SF-268 CNS", "result": "> 69.5", "unit": "µM"},
      {"measurement": "TGI", "setting": "CCRF-CEM leukemia", "result": "> 100", "unit": "µM"},
      {"measurement": "TGI", "setting": "SK-MEL-28 melanoma", "result": "> 100", "unit": "µM"},
      {"measurement": "TGI", "setting": "LOX IMVI melanoma", "result": 6, "unit": "µM"},
      {"measurement": "TGI", "setting": "EKVX NSCLC", "result": "> 100", "unit": "µM"},
      {"measurement": "TGI", "setting": "DU-145 prostate", "result": 14.3, "unit": "µM"},
      {"measurement": "TGI", "setting": "MCF7 breast", "result": 16.2, "unit": "µM"},
      {"measurement": "TGI", "setting": "MOLT-4 leukemia", "result": 11.7, "unit": "µM"},
      {"measurement": "TGI", "setting": "NCI-H226 lung", "result": "> 29.7", "unit": "µM"}
    ]}
  ]
}
